According to ChEMBL document CHEMBL5247643, “Discovery and Characterization of BAY-805, a Potent and Selective Inhibitor of Ubiquitin-Specific Protease USP21” (J Med Chem, 2023):
Calls of active or inactive are those of the source. The rule behind the calls is not given here.

Experiments:
Jurkat = assay: Antiproliferative activity against human Jurkat cells assessed as reduction in cell viability up to 30 uM incubated for 72 hrs by CellTiter-Glo luminescent assay; type: functional, cell-based
[1] = biological target: T1, Ubiquitin carboxyl-terminal hydrolase 2 (Homo sapiens) (UniProt O75604); assay: Inhibition of human USP2 using ubiquitin rhodamine 110 as substrate at 10 to 50 uM by fluorometric assay; settings: dose 10-50 µM
T1 sequence (whole entry): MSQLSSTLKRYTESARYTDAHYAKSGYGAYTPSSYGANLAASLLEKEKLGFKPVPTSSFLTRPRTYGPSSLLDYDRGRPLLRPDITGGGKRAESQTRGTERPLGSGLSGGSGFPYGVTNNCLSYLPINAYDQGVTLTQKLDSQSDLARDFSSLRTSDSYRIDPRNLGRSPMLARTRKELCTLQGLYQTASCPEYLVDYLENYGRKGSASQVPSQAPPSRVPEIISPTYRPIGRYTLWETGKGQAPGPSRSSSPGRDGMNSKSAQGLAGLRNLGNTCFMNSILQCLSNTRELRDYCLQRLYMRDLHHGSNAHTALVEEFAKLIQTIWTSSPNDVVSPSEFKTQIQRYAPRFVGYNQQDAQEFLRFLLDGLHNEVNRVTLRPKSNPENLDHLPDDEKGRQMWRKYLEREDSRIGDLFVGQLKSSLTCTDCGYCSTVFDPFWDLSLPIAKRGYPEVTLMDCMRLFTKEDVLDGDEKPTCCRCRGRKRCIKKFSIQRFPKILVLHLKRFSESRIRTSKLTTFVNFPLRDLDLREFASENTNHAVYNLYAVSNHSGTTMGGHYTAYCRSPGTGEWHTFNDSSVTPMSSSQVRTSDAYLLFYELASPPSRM

inhibition [1]: inactive
Compound: CC(C)C[C@H](NC(=O)C1(C(F)(F)F)CCCCC1)C(=O)Nc1nnc(Cc2ccc(C#N)cc2)s1
Activity (Jurkat): inactive
